Assay results: patent US20250163043A1 (TRANSTHERA SCIENCES (NANJING), INC., priority 2021, published 2025)

Assays:
CDK2/CycA2 = CDK2/CycA2 (Homo sapiens, UniProt P24941); test: ADP-Glo kinase assay on CDK enzymatic activity, CDK2/CycA2; format: biochemical; conditions: 10 concentrations from 10 μM, 4-fold, 60 min room temperature
Summary of the method: (§1)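 IC50 values derive from luminescent ADP detection (ADP-Glo) after a 60 min room-temperature kinase reaction with CDK tide and ATP. Dose range: 10 μM down in 4-fold steps, ten points.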

CDK5/p25NCK = CDK5/p25NCK (Homo sapiens, UniProt Q00535); test: ADP-Glo kinase assay on CDK enzymatic activity, CDK5/p25NCK; format: biochemical; conditions: 10 concentrations from 10 μM, 4-fold, 60 min room temperature
Summary of the method: as §1

CDK9/CycT1 = CDK9/CycT1 (Homo sapiens, UniProt P50750); test: ADP-Glo kinase assay on CDK enzymatic activity, CDK9/CycT1; format: biochemical; conditions: 10 concentrations from 10 μM, 4-fold, 60 min room temperature
Summary of the method: as §1

[1] = tested on: MV-4-11 (human myelomonocytic leukemia cells); test: CCK-8 cell proliferation assay, MV-4-11; format: cell-based; conditions: MV4-11, 24 h incubation, 11 concentrations from 5000 nM, 3-fold, read-out: MV-4-11 cell proliferation IC50 (class)
Procedure: Test samples: the compounds of the present invention, having structures shown above.
MV-4-11 (human myelomonocytic leukemia cells) and NCI-H929 (human myeloma cells).
The compounds were dissolved in DMSO and diluted 3-fold in the 96-well plate to obtain stock solutions with 11 concentration gradients. Each cell was inoculated into a 96-well plate, and the diluted compound stock solution was added to the 96-well plate to obtain a series of 11 concentration gradients of compound solutions with final concentrations of 5000 nM starting and 3-fold gradient decreasing, wherein the final DMSO content was […]. There was a medium containing 1‰ DMSO in the negative control well. The treated cells were incubated at 37° C. with 5% CO2 and 95% humidity, wherein MV-4-11 were incubated for 24 h and NCI-H929 for 72 h. After incubation was completed, each well was added with 10 μL of CCK-8 reagent, incubated for 1-3 h at room temperature and placed in the microplate reader, and the absorbance was read at 450 nm.
The inhibition rate was calculated according to the following formula: […]
ODcmpd: compound absorbance; ODpositive: average value of the absorbance of positive control without compound; ODvehicle: average value of the absorbance of solvent vehicle control.
IC50 values were fitted using GraphPad 7.0 based on inhibition rates of compounds at different concentrations.

CDK3/CycE1 = CDK3/CycE1 (Homo sapiens, UniProt Q00526); test: ADP-Glo kinase assay on CDK enzymatic activity, CDK3/CycE1; format: biochemical; conditions: 10 concentrations from 10 μM, 4-fold, 60 min room temperature
Summary of the method: as §1

CDK1/CycE1 = CDK1/CycE1 (Homo sapiens, UniProt P06493); test: ADP-Glo kinase assay on CDK enzymatic activity, CDK1/CycE1; format: biochemical; conditions: ADP-Glo; 10 concentrations from 10 μM, 4-fold; 60 min room temperature; read-out: CDK1/CycE1/nM (IC50)
Summary of the method: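 Compounds in 10-point 4-fold dilutions from 10 μM final, preincubated 10 min with kinase, then substrate/ATP added; 60 min reaction at room temperature. ADP-Glo luminescence read.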

Chain of CDK5/p25NCK (Q00535 whole entry, species assumed): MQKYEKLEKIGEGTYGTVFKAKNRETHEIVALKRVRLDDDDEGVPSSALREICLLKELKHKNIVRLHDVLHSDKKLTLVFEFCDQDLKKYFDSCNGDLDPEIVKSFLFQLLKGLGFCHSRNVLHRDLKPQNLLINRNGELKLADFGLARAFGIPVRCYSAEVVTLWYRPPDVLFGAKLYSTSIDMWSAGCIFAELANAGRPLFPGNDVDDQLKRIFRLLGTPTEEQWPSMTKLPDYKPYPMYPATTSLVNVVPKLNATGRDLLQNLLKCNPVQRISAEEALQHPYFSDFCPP
Chain of CDK5/p25NCK (Q15078 99-307 partner limits assumed, species assumed): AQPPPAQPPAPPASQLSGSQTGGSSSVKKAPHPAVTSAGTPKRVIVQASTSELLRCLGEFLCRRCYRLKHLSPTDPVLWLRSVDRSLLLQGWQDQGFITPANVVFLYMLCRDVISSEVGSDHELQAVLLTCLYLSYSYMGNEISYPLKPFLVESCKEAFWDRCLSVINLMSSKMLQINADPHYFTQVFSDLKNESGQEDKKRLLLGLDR
Chain of CDK9/CycT1 (P50750 whole entry): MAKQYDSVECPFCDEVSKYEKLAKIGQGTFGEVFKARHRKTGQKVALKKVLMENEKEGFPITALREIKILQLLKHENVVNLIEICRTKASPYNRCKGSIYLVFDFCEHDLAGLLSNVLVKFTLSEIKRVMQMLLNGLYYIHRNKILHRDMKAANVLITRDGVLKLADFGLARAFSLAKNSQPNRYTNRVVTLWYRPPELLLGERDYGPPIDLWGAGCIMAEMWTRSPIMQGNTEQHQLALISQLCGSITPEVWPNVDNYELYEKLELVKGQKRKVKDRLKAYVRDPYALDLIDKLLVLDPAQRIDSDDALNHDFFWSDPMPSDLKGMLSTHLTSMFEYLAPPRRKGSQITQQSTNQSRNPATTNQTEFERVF
Chain of CDK9/CycT1 (O60563 whole entry partner): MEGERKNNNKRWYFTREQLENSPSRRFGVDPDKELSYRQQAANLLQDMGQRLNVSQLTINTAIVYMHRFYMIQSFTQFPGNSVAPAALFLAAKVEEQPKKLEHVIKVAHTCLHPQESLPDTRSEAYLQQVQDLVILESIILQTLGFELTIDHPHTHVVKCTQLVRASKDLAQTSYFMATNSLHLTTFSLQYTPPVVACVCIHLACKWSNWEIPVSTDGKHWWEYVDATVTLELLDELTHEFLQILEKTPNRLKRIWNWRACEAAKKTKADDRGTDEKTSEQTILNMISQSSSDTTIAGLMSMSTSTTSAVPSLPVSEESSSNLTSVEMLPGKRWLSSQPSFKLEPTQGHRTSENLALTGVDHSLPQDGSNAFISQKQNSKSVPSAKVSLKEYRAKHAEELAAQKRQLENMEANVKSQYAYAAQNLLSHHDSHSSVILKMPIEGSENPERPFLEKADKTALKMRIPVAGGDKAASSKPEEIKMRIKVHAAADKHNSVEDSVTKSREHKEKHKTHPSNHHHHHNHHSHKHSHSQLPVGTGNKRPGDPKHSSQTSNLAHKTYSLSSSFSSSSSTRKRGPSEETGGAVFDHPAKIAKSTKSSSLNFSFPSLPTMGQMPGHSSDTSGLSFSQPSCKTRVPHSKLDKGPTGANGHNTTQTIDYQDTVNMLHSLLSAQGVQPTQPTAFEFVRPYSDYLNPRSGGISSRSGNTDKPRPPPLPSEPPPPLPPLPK
Chain of CDK1/CycE1 (P06493 whole entry, species assumed): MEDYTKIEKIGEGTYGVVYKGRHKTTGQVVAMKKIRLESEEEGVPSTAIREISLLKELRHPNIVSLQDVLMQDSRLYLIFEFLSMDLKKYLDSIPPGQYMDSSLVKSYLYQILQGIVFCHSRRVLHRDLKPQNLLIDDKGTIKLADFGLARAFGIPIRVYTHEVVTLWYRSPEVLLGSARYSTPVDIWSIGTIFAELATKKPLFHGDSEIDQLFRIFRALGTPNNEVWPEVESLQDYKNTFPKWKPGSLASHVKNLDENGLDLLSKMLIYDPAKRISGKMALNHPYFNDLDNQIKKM
Chain of CDK1/CycE1 (P24864 whole entry partner, species assumed): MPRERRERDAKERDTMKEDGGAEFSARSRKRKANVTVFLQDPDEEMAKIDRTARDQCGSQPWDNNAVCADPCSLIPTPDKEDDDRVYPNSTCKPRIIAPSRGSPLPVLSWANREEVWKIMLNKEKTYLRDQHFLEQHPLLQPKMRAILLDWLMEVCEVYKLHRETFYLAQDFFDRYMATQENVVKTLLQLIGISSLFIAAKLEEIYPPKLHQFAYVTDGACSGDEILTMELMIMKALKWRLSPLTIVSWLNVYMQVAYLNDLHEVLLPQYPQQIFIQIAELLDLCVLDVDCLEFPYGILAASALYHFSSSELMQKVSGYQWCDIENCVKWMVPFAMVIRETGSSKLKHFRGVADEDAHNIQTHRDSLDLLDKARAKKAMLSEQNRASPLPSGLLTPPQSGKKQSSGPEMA
Chain of CDK3/CycE1 (Q00526 whole entry, species assumed): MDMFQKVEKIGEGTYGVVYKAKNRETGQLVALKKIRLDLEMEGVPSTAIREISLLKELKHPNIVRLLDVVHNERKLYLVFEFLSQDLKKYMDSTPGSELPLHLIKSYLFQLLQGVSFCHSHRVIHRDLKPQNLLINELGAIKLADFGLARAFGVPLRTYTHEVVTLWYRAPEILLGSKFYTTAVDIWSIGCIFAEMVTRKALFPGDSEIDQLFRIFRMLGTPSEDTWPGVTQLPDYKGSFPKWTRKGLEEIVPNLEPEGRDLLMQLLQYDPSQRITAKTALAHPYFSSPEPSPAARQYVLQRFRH
Chain of CDK3/CycE1 (P24864 whole entry partner, species assumed): as the sequence (P24864 whole entry partner, species assumed) above

IC50 (CDK2/CycA2) [nM]	IC50 (CDK5/p25NCK) [nM]	IC50 (CDK9/CycT1) [nM]	IC50 [1] [µM]	IC50 (CDK3/CycE1) [nM]	IC50 (CDK1/CycE1) [nM]	Compound
521	1210	12	0.4 to 1	602		CC(=O)N[C@H]1CCC[C@H](C(=O)Nc2cc3c(NC(C)C)nc(C#N)cc3cn2)C1 [Compound 25, (1S,3S)-3-acetamido-N-(7-cyano-5-(isopropylamino)-2,6-naphthyridin-3-yl)cyclohexane-1-carboxamide]
4	7	1	0.4 to 1	23		CC(C)Nc1nc(C#N)cc2cnc(N[C@H]3CC[C@@H](O)C3)cc12 [Compound 36, 7-(((1S,3R)-3-hydroxycyclopentyl)amino)-1-(isopropylamino)-2,6-naphthyridine-3-carbonitrile]
182	770	1	0.4 to 1	273		CC(=O)N[C@@H]1CCC[C@H](C(=O)Nc2cc3c(NC(C)(C)C)nc(C#N)cc3cn2)C1 [Compound 15, (1S,3R)-3-acetamido-N-(5-(tert-butylamino)-7-cyano-2,6-naphthyridin-3-yl)cyclohexane-1-carboxamide]
531	2230	3	0.4 to 1	215	158	C[C@@H](Nc1nc(C#N)cc2cnc(N[C@H]3CCCNC3)cc12)c1ccccc1 [Compound 147, 1-(((R)-1-phenylethyl)amino)-7-(((S)-piperidin-3-yl)amino)-2,6-naphthyridine-3-carbonitrile]
2520	3960	51	0.4 to 1	1630		CC(C)Nc1nc(C#N)cc2cnc(NC(=O)[C@H]3CCC[C@H](N)C3)cc12 [Compound 27, (1S,3S)-3-amino-N-(7-cyano-5-(isopropylamino)-2,6-naphthyridin-3-yl)cyclohexane-1-carboxamide]
656	927	3	0.4 to 1	1110		COCCN[C@H]1CC[C@H](Nc2cc3c(NC(C)C)nc(C#N)cc3cn2)C1 [Compound 56, 1-(isopropylamino)-7-(((1S,3S)-3-((2-methoxyethyl)amino)cyclopentyl)amino)-2,6-naphthyridine-3-carbonitrile]
594	1480	4	0.4 to 1	1300		CC(C)Nc1nc(C#N)cc2cnc(N[C@H]3CCNC3)cc12 [Compound 31, (S)-1-(isopropylamino)-7-(pyrrolidin-3-ylamino)-2,6-naphthyridine-3-carbonitrile]
2150	4320	11	> 1	1750		CC(=O)N[C@@H]1CCC[C@H](C(=O)Nc2cc3c(N4CC[C@@H](N)C4)nc(C#N)cc3cn2)C1 [Compound 20, (1S,3R)-3-acetamido-N-(5-((R)-3-aminopyrrolidin-1-yl)-7-cyano-2,6-naphthyridin-3-yl)cyclohexane-1-carboxamide]
443	435	18	0.4 to 1	831	947	CC(C)Nc1nc(C#N)cc2cnc(N[C@H]3CC[C@H](C)NC3)nc12 [Compound 107, 8-(isopropylamino)-2-(((3S,6S)-6-methylpiperidin-3-yl)amino)pyrido[3,4-d]pyrimidine-6-carbonitrile]
1080	1580	7	0.4 to 1	2050		CN[C@@H]1CC[C@H](Nc2cc3c(NC(C)C)nc(C#N)cc3cn2)C1 [Compound 32, 1-(isopropylamino)-7-(((1S,3R)-3-(methylamino)cyclopentyl)amino)-2,6-naphthyridine-3-carbonitrile]
504	1170	9	0.4 to 1	413	216	CC(C)Nc1nc(C#N)cc2cnc(NC3CCNCC3)nc12 [Compound 114, 8-(isopropylamino)-2-(piperidin-4-ylamino)pyrido[3,4-d]pyrimidine-6-carbonitrile]
2020	3040	18	> 1	1300		CC(C)Nc1nc(C#N)cc2cnc(N[C@@H]3CNCC[C@@H]3F)cc12 [Compound 42, 7-(((3R,4S)-4-fluoropiperidin-3-yl)amino)-1-(isopropylamino)-2,6-naphthyridine-3-carbonitrile]
1460	2500	20	> 1	951		CC(=O)N[C@@H]1CCC[C@H](C(=O)Nc2cc3c(NC4CC4)nc(C#N)cc3cn2)C1 [Compound 16, (1S,3R)-3-acetamido-N-(7-cyano-5-(cyclopropylamino)-2,6-naphthyridin-3-yl)cyclohexane-1-carboxamide]
3370	> 10000	15	> 1	> 10000		CC(=O)N[C@@H]1CCC[C@H](C(=O)Nc2cc3c(NC(CCO)CCO)nc(C#N)cc3cn2)C1 [Compound 18, (1S,3R)-3-acetamido-N-(7-cyano-5-((1,5-dihydroxypentan-3-yl)amino)-2,6-naphthyridin-3-yl)cyclohexane-1-carboxamide]
2370	6080	26	> 1	1470		CC(=O)N[C@@H]1CCC[C@H](C(=O)Nc2cc3c(N4CC[C@@H](O)C4)nc(C#N)cc3cn2)C1 [Compound 19, (1S,3R)-3-acetamido-N-(7-cyano-5-((R)-3-hydroxypyrrolidin-1-yl)-2,6-naphthyridin-3-yl)cyclohexane-1-carboxamide]
4510	> 10000	17	0.4 to 1	1910		CC(=O)N[C@@H]1CCC[C@H](C(=O)Nc2cc3c(N4CC[C@@](C)(O)C4)nc(C#N)cc3cn2)C1 [Compound 22, (1S,3R)-3-acetamido-N-(7-cyano-5-((R)-3-hydroxy-3-methylpyrrolidin-1-yl)-2,6-naphthyridin-3-yl)cyclohexane-1-carboxamide]
33	72	3	0.4 to 1	271		CC(=O)N[C@H]1CC[C@H](Nc2ncc3cc(C#N)nc(NC(C)C)c3n2)C1 [Compound 46, N-((1S,3S)-3-((6-cyano-8-(isopropylamino)pyrido[3,4-d]pyrimidin-2-yl)amino)cyclopentyl)acetamide]
3870	> 10000	38	> 1	5650		CC(=O)N[C@@H]1CCC[C@H](C(=O)Nc2cc3c(N4CCC(F)(F)CC4)nc(C#N)cc3cn2)C1 [Compound 23, (1S,3R)-3-acetamido-N-(7-cyano-5-(4,4-difluoropiperidin-1-yl)-2,6-naphthyridin-3-yl)cyclohexane-1-carboxamide]
427	1760	30	> 1	2520		CC(C)Nc1nc(C#N)cc2cnc(N[C@H]3CCCN(C)C3)cc12 [Compound 57, (S)-1-(isopropylamino)-7-((1-methylpiperidin-3-yl)amino)-2,6-naphthyridine-3-carbonitrile]
279	664	4	0.4 to 1	750		CC(=O)N[C@@H]1CCC[C@H](C(=O)Nc2cc3c(NC4(C)CC4)nc(C#N)cc3cn2)C1 [Compound 17, (1S,3R)-3-acetamido-N-(7-cyano-5-((1-methylcyclopropyl)amino)-2,6-naphthyridin-3-yl)cyclohexane-1-carboxamide]
494	1050	17	0.4 to 1	987		CC(=O)N[C@@H]1CC[C@H](Nc2cc3c(NC(C)C)nc(C#N)cc3cn2)C1 [Compound 47, N-((1R,3S)-3-((7-cyano-5-(isopropylamino)-2,6-naphthyridin-3-yl)amino)cyclopentyl)acetamide]
520	941	5	> 1	1130		CC(C)Nc1nc(C#N)cc2cnc(N[C@@H]3CN[C@H](CO)C3)cc12 [Compound 37, 7-(((3S,5S)-5-(hydroxymethyl)pyrrolidin-3-yl)amino)-1-(isopropylamino)-2,6-naphthyridine-3-carbonitrile]
